# Earlier results in patent US10059717B2, “Urea compounds containing 3,4-dihydropyrimido[4,5-D]pyrimidin-2(1H)-one skeleton as protein kinase inhibitors” (KOREA INSTITUTE OF SCIENCE AND TECHNOLOGY, priority 2016, dated 2018).
# How the values were obtained:
# [1] = system: cell samples from AML patients with actual NRAS mutants; settings: cited from earlier work
# [2] = system: preclinical leukemia models; settings: cited from earlier work
smiles,measurement,setting,value
Cc1ccc(Nc2ncc3c(n2)N(C)C(=O)N(c2cc(NC(=O)c4cccc(C(F)(F)F)c4)ccc2C)C3)cn1 [GNF 7],efficacy in cell samples from AML patients,[1],exhibited its efficacy
same,inhibitory effects in preclinical leukemia models,[2],inhibitory effects in preclinical leukemia models have been observed
